Results as given in patent US11524955B2, “2,4-diamino-pyrimidine compounds and method for making and using the compounds” (Rigel Pharmaceuticals, Inc., priority 2016, dated 2022).
Where two headings read alike, the source gives them in different places.

Tests used:
IL-23, THP1 cells = assay: IL-23 assay, THP1 cells primed with IFNg, LPS stimulated, ELISA; format: cell-based; settings: Homo sapiens, THP-1
Protocol: (§1) IL-23 assays: THP1 cells or human primary monocyte-derived dendritic cells (DC) were primed overnight with IFNg. Following one hour preincubation with compound, cells were stimulated overnight with LPS. IL-23 released into the media was quantitated by ELISA.

IL-23, dendritic cells = assay: IL-23 assay, human primary monocyte-derived dendritic cells, LPS stimulated, ELISA; format: cell-based; settings: Dendritic cell
Protocol: as §1

IRAK4 = target: T1, IRAK4 (Homo sapiens, UniProt Q9NWZ3); assay: IRAK4 biochemical assay, ADP-Glo kinase assay; settings: for Selectivity (TAK1/IRAK4): ratio of TAK1 and IRAK4 IC50
T1 sequence (Q9NWZ3 1-460): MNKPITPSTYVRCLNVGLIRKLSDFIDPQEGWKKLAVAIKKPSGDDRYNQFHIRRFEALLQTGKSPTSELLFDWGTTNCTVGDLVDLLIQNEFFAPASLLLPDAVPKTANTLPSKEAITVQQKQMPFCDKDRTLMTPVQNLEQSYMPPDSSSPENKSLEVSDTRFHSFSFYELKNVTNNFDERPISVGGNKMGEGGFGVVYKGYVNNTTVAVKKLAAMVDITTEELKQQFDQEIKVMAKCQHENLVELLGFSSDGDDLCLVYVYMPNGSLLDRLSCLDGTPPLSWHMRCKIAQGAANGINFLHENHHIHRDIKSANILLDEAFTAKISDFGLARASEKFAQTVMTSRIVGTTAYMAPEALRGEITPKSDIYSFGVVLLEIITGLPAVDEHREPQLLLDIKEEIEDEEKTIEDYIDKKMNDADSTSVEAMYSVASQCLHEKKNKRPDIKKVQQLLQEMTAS
Protocol: (§2) IRAK4 and TAK1 biochemical assays: kinase activity was measured by ADP-Glo kinase assay (Promega).

TAK1 = target: T2, TAK1 (Homo sapiens, UniProt O43318); assay: TAK1 biochemical assay, ADP-Glo kinase assay
T2 sequence (O43318 1-303 limits assumed): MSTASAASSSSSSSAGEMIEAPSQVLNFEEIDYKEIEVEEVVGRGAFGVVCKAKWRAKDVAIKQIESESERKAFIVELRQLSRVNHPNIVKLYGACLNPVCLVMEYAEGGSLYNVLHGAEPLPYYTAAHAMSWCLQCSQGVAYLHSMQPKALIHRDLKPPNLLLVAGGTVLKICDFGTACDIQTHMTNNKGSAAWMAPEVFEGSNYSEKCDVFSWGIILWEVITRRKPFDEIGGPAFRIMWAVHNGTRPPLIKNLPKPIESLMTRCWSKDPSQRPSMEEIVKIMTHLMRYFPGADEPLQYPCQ
Protocol: as §2

IL-8, HUVEC = assay: IL-8 assay, HUVEC, ELISA; format: cell-based, human; settings: for IC50: Homo sapiens
IL-6, HUVEC = assay: IL-6 assay, HUVEC, ELISA; format: cell-based, human; settings: for IC50: Homo sapiens
[1] = THP1 cells, IFNy primed, LPS stimulated, 10 pt, read-out: IL23-p19 ELISA, THP1-IFNy, LPS, 10 pt
[2] = LPS stimulated, 10 pt, read-out: IL23-P19, ELISA, Dendritic, LPS, 10 pt
[3] = read-out: IL23 (LPS induced) IC50

| SMILES | IC50 (IL-23, THP1 cells; [1]) | IC50 (IL-23, dendritic cells; [2]) | IC50 (IL-23, THP1 cells; [3]) | IC50 (IRAK4) | IC50 (TAK1) | Selectivity (TAK1/IRAK4) (IRAK4) | further results |
| --- | --- | --- | --- | --- | --- | --- | --- |
| Cc1cc(Nc2ncc(-c3cccnc3)c(NC3C4C=CC(C4)C3C(N)=O)n2)ccc1OCCN1CCCC1 (stereo not shown) [Compound 1, 3-((2-((3-methyl-4-(2-(pyrrolidin-1-yl)ethoxy)phenyl)amino)-5-(pyridin-3-yl)pyrimidin-4-yl)amino)bicyclo[2.2.1] hept-5-ene-2-carboxamide] | < 100 nM | < 250 nM |  |  |  |  |  |
| NC(=O)[C@@H]1[C@H](Nc2nc(Nc3ccc(OCCN4CCCC4)cc3)ncc2-c2cccnc2)[C@H]2C=C[C@@H]1C2 [Compound 2] | < 1000 nM |  |  |  |  |  |  |
| CS(=O)(=O)N1CCN(c2ccc(Nc3ncc(-c4cccnc4)c(N[C@@H]4C5C=CC(C5)[C@@H]4C(N)=O)n3)cc2F)CC1 (stereo partly drawn) [Compound 3, (2S,3R)-3-((2-((3-fluoro-4-(4-(methylsulfonyl)piperazin-1-yl)phenyl)amino)-5-(pyridin-3-yl)pyrimidin-4-yl)amino)bicyclo[2.2.1] hept-5-ene-2-carboxamide] | < 1000 nM |  |  |  |  |  |  |
| NC(=O)[C@@H]1[C@H](Nc2nc(Nc3cccc(C(=O)N4CCCC4)c3)ncc2-c2cccnc2)[C@H]2C=C[C@@H]1C2 [Compound 4, (1S,2S,3R,4R)-3-((5-(pyridin-3-yl)-2-((3-(pyrrolidine-1-carbonyl)phenyl)amino)pyrimidin-4-yl)amino)bicyclo[2.2.1] hept-5-ene-2-carboxamide] | < 1000 nM |  | 320 nM | 10 nM | 229 nM |  |  |
| Cc1cnc(Nc2cccc(C(=O)N3CCCC3)c2)nc1N[C@H]1[C@@H](C(N)=O)[C@@H]2C=C[C@H]1C2 [Compound 5, (1S,2S,3R,4R)-3-((5-methyl-2-((3-(pyrrolidine-1-carbonyl)phenyl)amino)pyrimidin-4-yl)amino)bicyclo[2.2.1] hept-5-ene-2-carboxamide] | < 100 nM |  | 100 nM | 3 nM | 8 nM |  |  |
| NC(=O)[C@@H]1[C@H](Nc2nc(Nc3cccc(C(=O)N4CCCC4)c3)ncc2C2CC2)[C@H]2C=C[C@@H]1C2 [Compound 6, (1S,2S,3R,4R)-3-((5-cyclopropyl-2-((3-(pyrrolidine-1-carbonyl)phenyl)amino)pyrimidin-4-yl)amino)bicyclo[2.2.1] hept-5-ene-2-carboxamide] | < 100 nM | < 100 nM | 90 nM | 6 nM | 11 nM |  |  |
| NC(=O)[C@@H]1[C@H](Nc2nc(Nc3cccc(C(=O)N4CCCC4)c3)ncc2-c2ccoc2)[C@H]2C=C[C@@H]1C2 [Compound 7, (1S,2S,3R,4R)-3-((5-(furan-3-yl)-2-((3-(pyrrolidine-1-carbonyl)phenyl)amino)pyrimidin-4-yl)amino)bicyclo[2.2.1] hept-5-ene-2-carboxamide] | < 100 nM | < 100 nM | 40 nM | 2 nM | 11 nM |  |  |
| NC(=O)[C@@H]1[C@H](Nc2nc(Nc3cccc(C(=O)N4CCCC4)c3)ncc2-c2ccccc2)[C@H]2C=C[C@@H]1C2 [Compound 8, (1S,2S,3R,4R)-3-((5-phenyl-2-((3 (pyrrolidine-1-carbonyl)phenyl)amino)pyrimidin-4-yl)amino)bicyclo[2.2.1] hept-5-ene-2-carboxamide] | < 250 nM | < 1000 nM | 220 nM | 10 nM | 166 nM |  |  |
| NC(=O)[C@@H]1[C@H](Nc2nc(Nc3cccc(C(=O)N4CCCC4)c3)ncc2-c2ccncc2)[C@H]2C=C[C@@H]1C2 [Compound 9, (1S,2S,3R,4R)-3-((5-(pyridin-4-yl)-2-((3-(pyrrolidine-1-carbonyl)phenyl)amino)pyrimidin-4-yl)amino)bicyclo[2.2.1] hept-5-ene-2-carboxamide] | < 250 nM | < 250 nM | 130 nM | 4 nM | 24 nM | 7 |  |
| NC(=O)[C@@H]1[C@H](Nc2nc(Nc3cccc(C(=O)N4CCCC4)c3)ncc2-c2ccccc2F)[C@H]2C=C[C@@H]1C2 [Compound 10, (1S,2S,3R,4R)-3-((5-(2-fluorophenyl)-2-((3-(pyrrolidine-1-carbonyl)phenyl)amino)pyrimidin-4-yl)amino)bicyclo[2.2.1] hept-5-ene-2-carboxamide] | < 1000 nM |  | 870 nM | 11 nM | 4800 nM | 434 | IRAK4/TAK1 selectivity (IRAK4): 434 |
| NC(=O)[C@@H]1[C@H](Nc2nc(Nc3cccc(C(=O)N4CCCC4)c3)ncc2-c2cccc(F)c2)[C@H]2C=C[C@@H]1C2 [Compound 11, (1S,2S,3R,4R)-3-((5-(3-fluorophenyl)-2-((3-(pyrrolidine-1-carbonyl)phenyl)amino)pyrimidin-4-yl)amino)bicyclo[2.2.1] hept-5-ene-2-carboxamide] | < 250 nM | < 100 nM | 130 nM | 6 nM | 106 nM | 17 | IC50 (IL-8, HUVEC; read-out: IL8 (HUVEC, IL-1β) IC50): 310 nM; IC50 (IL-8, HUVEC; read-out: IL8 (HUVEC, LPS) IC50): 950 nM; IC50 (IL-8, HUVEC; read-out: IL8 (HUVEC, TNFα) IC50): 6000 nM; Selectivity IL8 (TNFα/IL-1β) (IL-8, HUVEC; ratio TNFα/IL-1β): 18; Selectivity IL8 (TNFα/LPS) (IL-8, HUVEC; ratio TNFα/LPS): 6; IC50 (IL-23, THP1 cells; THP cells, LPS, read-out: IL23 (THP, LPS) IC50): 130 nM; IC50 (IL-6, HUVEC; read-out: IL6 (HUVEC, IL-1β) IC50): 140 nM; IC50 (IL-6, HUVEC; read-out: IL6 (HUVEC, LPS) IC50): 130 nM; IC50 (IL-6, HUVEC; read-out: IL6 (HUVEC, TNFα) IC50): 1700 nM; Selectivity IL6 (TNFα/IL-1β) (IL-6, HUVEC; ratio TNFα/IL-1β): 12; Selectivity IL6 (TNFα/LPS) (IL-6, HUVEC; ratio TNFα/LPS): 13; IC50 (IL-23, dendritic cells; LPS, read-out: IL23 (Dentritic Cells, LPS) IC50): 70 nM |
| NC(=O)[C@@H]1[C@H](Nc2nc(Nc3cccc(C(=O)N4CCCC4)c3)ncc2-c2ccc(F)cc2)[C@H]2C=C[C@@H]1C2 [Compound 12, (1S,2S,3R,4R)-3-((5-(4-fluorophenyl)-2-((3 (pyrrolidine-1-carbonyl)phenyl)amino)pyrimidin-4-yl)amino)bicyclo[2.2.1] hept-5-ene-2-carboxamide] | < 1000 nM | > 1000 nM | 460 nM | 19 nM | 670 nM |  |  |
| N#Cc1cccc(-c2cnc(Nc3cccc(C(=O)N4CCCC4)c3)nc2N[C@H]2[C@@H](C(N)=O)[C@@H]3C=C[C@H]2C3)c1 [Compound 13, (1S,2S,3R,4R)-3-((5-(3-cyanophenyl)-2-((3-(pyrrolidine-1-carbonyl)phenyl)amino)pyrimidin-4-yl)amino)bicyclo[2.2.1] hept-5-ene-2-carboxamide] | < 1000 nM | < 1000 nM | 280 nM | 13 nM | 105 nM |  |  |
| N#Cc1ccc(-c2cnc(Nc3cccc(C(=O)N4CCCC4)c3)nc2N[C@H]2[C@@H](C(N)=O)[C@@H]3C=C[C@H]2C3)cc1 [Compound 14, (1S,2S,3R,4R)-3-((5-(4-cyanophenyl)-2-((3-(pyrrolidine-1-carbonyl)phenyl)amino)pyrimidin-4-yl)amino)bicyclo[2.2.1] hept-5-ene-2-carboxamide] | < 250 nM | < 1000 nM | 190 nM | 9 nM | 1600 nM |  |  |
| N#Cc1cccc(-c2cnc(Nc3cccc(C(=O)N4CCCC4)c3)nc2N[C@@H]2CCCC[C@@H]2C(N)=O)c1 [Compound 17, (1S,2R)-2-((5-(3-cyanophenyl)-2-((3-(pyrrolidine-1-carbonyl)phenyl)amino)pyrimidin-4-yl)amino)cyclohexane-1-carboxamide] | < 1000 nM |  | 900 nM | 30 nM | 67 nM | 2 |  |
| N#Cc1cccc(-c2cnc(Nc3cccc(C(=O)N4CCCC4)c3)nc2N[C@H]2[C@@H](C#N)[C@@H]3C=C[C@H]2C3)c1 [Compound 18, (1S,2S,3R,4R)-3-((5-(3-cyanophenyl)-2-((3-(pyrrolidine-1-carbonyl)phenyl)amino)pyrimidin-4-yl)amino)bicyclo[2.2.1] hept-5-ene-2-carbonitrile] | > 1000 nM |  | 3400 nM | 3700 nM | 132000 nM | 36 |  |
